This passage reports CC50, IC (TGI) and GI50 results from US10538535B2, “Antitumoral compounds” (priority 2017, dated 2020).

Where only a bound is given, the exact number is not on record here.

What all share (test): cells
One test has as its system HT29 cells. The settings on record: Homo sapiens, HT-29, 72 h; for CC50: read-out: LC50; for IC (TGI): read-out: TGI. The source says: (§1) The aim of this assay is to evaluate the in vitro cytostatic (ability to delay or arrest tumor cell growth) or cytotoxic (ability to kill tumor cells) activity of the samples being tested.
(§2) A colorimetric assay, using sulforhodamine B (SRB) reaction has been adapted to provide a quantitative measurement of cell growth and viability (following the technique described by Skehan et al. J. Natl. Cancer Inst. 1990, 82, 1107-1112). Another colorimetric assay based on 3-(4,5-Dimethylthiazol-2-yl)-2,5-diphenyltetrazolium bromide (MTT) reduction to a purple formazan has been also used to assess the antiproliferative activity (following the technique described by Mosmann et al. J. Immunol. Meth. 1983, 65, 55-63).
(§3) These forms of assays employ 96-well cell culture microplates following the standards of the American National Standards Institute and the Society for Laboratory Automation and Screening (ANSI SLAS 1-2004 (R2012) Oct. 12, 2011. All the cell lines used in this study were obtained from the American Type Culture Collection (ATCC) and derive from different types of human cancer.
(§4) A549, HT29, MDA-MB-231 and PSN1 cells were maintained in Dulbecco's Modified Eagle Medium (DMEM) while PC-3 and 22Rv1 cells were maintained in Roswell Park Memorial Institute Medium (RPMI). All cell lines were supplemented with 10% Fetal Bovine Serum (FBS), 2 mM L-glutamine, 100 U/mL penicillin, and 100 […] at 37° C., 5% CO2 and 98% humidity. For the experiments, cells were harvested from subconfluent cultures using trypsinization and resuspended in fresh medium before counting and plating.
(§5) A549, HT29, MDA-MB-231 and PSN1 cells were seeded in 96 well microtiter plates, at 5000 cells per well in aliquots of 150 μL, and allowed to attach to the plate surface for 18 hours (overnight) in drug free medium. After that, one control (untreated) plate of each cell line was fixed (as described below) and used for time zero reference value. Culture plates were then treated with test compounds (50 μL aliquots of 4× stock solutions in complete culture medium plus 4% DMSO) using ten 2/5 serial dilutions (concentrations ranging from 10 to 0.003 μg/mL) and triplicate cultures (1% final concentration in DMSO). After 72 hours treatment, the antitumor effect was measured by using the SRB methodology: Briefly, cells were washed twice with PBS, fixed for 15 min in 1% glutaraldehyde solution at room temperature, rinsed twice in PBS, and stained in 0.4% SRB solution for 30 min at room temperature. Cells were then rinsed several times with 1% acetic acid solution and air-dried at room temperature.
(§6) Effects on cell growth and survival were estimated by applying the NCI algorithm (Boyd M R and Paull K D. Drug Dev. Res. 1995, 34, 91-104). The values obtained in triplicate cultures were fitted by nonlinear regression to a four-parameters logistic curve by nonlinear regression analysis.

A further test relates to PSN1 cells. The settings on record: Homo sapiens, PSN1, 72 h; for CC50: read-out: LC50; for IC (TGI): read-out: TGI.
Excerpt: as §1, §2, §3, §4, §5, §6

The subject of a further test is MDA-MB-231 cells. The following applies: Homo sapiens, MDA-MB-231, 72 h; for CC50: read-out: LC50; for IC (TGI): read-out: TGI.
Excerpt: as §1, §2, §3, §4, §5, §6

In another test the test system is A549 cells. The following applies: Homo sapiens, A549, 72 h; for CC50: read-out: LC50; for IC (TGI): read-out: TGI.
Excerpt: as §1, §2, §3, §4, §5, §6

By GI50 is commonly meant the concentration at which growth is held to half of that of the control. For `COc1ccc2[nH]c3c(c2c1)C[C@@H](CN)N[C@]31CS[C@@H]2c3c(OC(C)=O)c(C)c4c(c3[C@H](COC1=O)N1[C@@H]2[C@H]2c3c(cc(C)c(OC)c3O)C[C@@H]([C@@H]1O)N2C)OCO4` [Compound 27-S], the CC50 in the test with HT29 cells is above 123 nM; in the test with PSN1 cells, 4.55 nM; with MDA-MB-231 cells, 1.35 nM; in the test on A549 cells it was above 123 nM. Besides, the IC (TGI) with HT29 cells stood at 1.35 nM; in the test with PSN1 cells, 2.83 nM; with A549 cells, 11.2 nM. Besides, the GI50 stood at 1.97 nM in the test on PSN1 cells (PSN1, 72 hours treatment, SRB); 1.19 nM in the test with MDA-MB-231 cells; 6.02 nM in the test on A549 cells.

As to `COc1ccc2[nH]c3c(c2c1)C[C@@H](C(=O)O)N[C@]31CS[C@@H]2c3c(OC(C)=O)c(C)c4c(c3[C@H](COC1=O)N1[C@@H]2[C@H]2c3c(cc(C)c(OC)c3O)C[C@@H]([C@@H]1C#N)N2C)OCO4` [Compound 28-S], the GI50 in the test with HT29 cells came out at 251 nM; in the test with PSN1 cells, 251 nM; with MDA-MB-231 cells, 167 nM; in the test on A549 cells, 489 nM. In addition, the CC50 is 633 nM in the test with HT29 cells, 692 nM in the test with PSN1 cells, 394 nM in the test on MDA-MB-231 cells and above 1190 nM in the test with A549 cells. Besides, the IC (TGI) is 346 nM in the test with HT29 cells, 394 nM with PSN1 cells, 251 nM in the test with MDA-MB-231 cells and above 1190 nM with A549 cells.

Turning to `COc1ccc2[nH]c3c(c2c1)C[C@H](C(=O)O)N[C@]31CS[C@@H]2c3c(OC(C)=O)c(C)c4c(c3[C@H](COC1=O)N1[C@@H]2[C@H]2c3c(cc(C)c(OC)c3O)C[C@@H]([C@@H]1O)N2C)OCO4` [Compound 29-R], the GI50 in the test on HT29 cells was 30.2 nM; in the test with PSN1 cells, 30.2 nM; with MDA-MB-231 cells, 16.9 nM; in the test on A549 cells, 90.5 nM. Besides, the CC50 in the test with HT29 cells is above 1210 nM; with PSN1 cells it was 35 nM; in the test on MDA-MB-231 cells, 157 nM; with A549 cells, above 1210 nM. Also, the IC (TGI) is 32.6 nM in the test on HT29 cells, 31.4 nM in the test on PSN1 cells, 27.7 nM with MDA-MB-231 cells and 193 nM in the test with A549 cells.

As for `C=CCOC(=O)NC[C@@H]1Cc2c([nH]c3ccc(OC)cc23)[C@@]2(CS[C@@H]3c4c(OC(C)=O)c(C)c5c(c4[C@H](COC2=O)N2[C@@H]3[C@H]3c4c(cc(C)c(OC)c4O)C[C@@H]([C@@H]2C#N)N3C)OCO5)N1` [Compound 25-S], the GI50 worked out at 7.17 nM in the test with HT29 cells; 6.84 nM with PSN1 cells (PSN1, 72 hours treatment, SRB); 5.84 nM in the test on MDA-MB-231 cells; 7.17 nM in the test with A549 cells. Further, the CC50 with HT29 cells was above 110 nM; with PSN1 cells, 14.3 nM; in the test with MDA-MB-231 cells, 15.4 nM; with A549 cells it was above 110 nM. For the same compound, the IC (TGI) in the test on HT29 cells came to 7.72 nM; in the test with PSN1 cells it was 9.26 nM; in the test with MDA-MB-231 cells, 9.04 nM; in the test with A549 cells it was 7.61 nM.

For the compound `COc1ccc2[nH]c3c(c2c1)C[C@H](C(=O)O)N[C@]31CS[C@@H]2c3c(OC(C)=O)c(C)c4c(c3[C@H](COC1=O)N1[C@@H]2[C@H]2c3c(cc(C)c(OC)c3O)C[C@@H]([C@@H]1C#N)N2C)OCO4` [Compound 28-R], the GI50 with HT29 cells worked out at 31 nM; in the test with PSN1 cells, 21.5 nM; in the test with MDA-MB-231 cells, 19.1 nM; with A549 cells it was 167 nM. The CC50 is above 1190 nM in the test with HT29 cells, 66.8 nM in the test on PSN1 cells, 91.9 nM with MDA-MB-231 cells and above 1190 nM in the test with A549 cells. Further, the IC (TGI) in the test with HT29 cells stood at 33.4 nM; in the test with PSN1 cells it was 35.8 nM; with MDA-MB-231 cells, 32.2 nM; in the test with A549 cells it was 358 nM.
